# Experimental data: patent US4296233A, “Conjugate of amino sugar-steroid hormone” (Kureha Kagaku Kogyo Kabushiki Kaisha, priority 1978, dated 1981)
# “And” between values parts separate entries of the source, which are not always exact repeats. Identical values can stand only once. Like-named read-outs stand apart in the source and are kept apart here.
# How the values were obtained:
# [1] = Solubility of the conjugate in water; format: physicochemical; conditions: compared with conjugate at 3-position in Example 1
# [2] = Solubility in a mixed solvent of 98 vol.% of water and 2 vol.% of ethanol (method of Example 1); format: physicochemical; conditions: for solubility: water/ethanol 98:2, organic solvent or mixture
# Experimental: The conjugate is dissolved at 4.39×10^-5 mole/liter (30 mg/liter) in a mixed solvent of 98 vol.% of water and 2 vol.% of ethanol.
# Solubility of dehydroepiandrosterone in the same mixed solvent measured by absorbance at 235 mμ is 0.24×10^-5 mole/liter.
# [3] = test system: antibody which is active to the ketone group at 17-position of dehydroepiandrosterone; test: Competitive immunoassay with tritium-labelled dehydroepiandrosterone bound to antibody; format: binding; conditions: FIG. 1, curves A and B
# Experimental: In order to confirm the presence of C-D complex combined to AP, the combined product was analyzed by a competitive immunoassay method described in Seikagaku Jikken Koza (Biochemical Experiment Hormones (First) Page 217 to 252 (by Nippon Seikagaku Kai) (published by Tokyo Kagaku Dojin in 1977).
# Dehydroepiandrosterone labelled by tritium (^3 H) was bound to the antibody which is active to the ketone group at 17-position of dehydroepiandrosterone. The combined product or dehydroepiandrosterone was added to the system of the antibody and the labelled compound to measure the amount of free ^3 H-dehydroepiandrosterone release from the system.
# [4] = mixed solvent of 98 vol.% of water and 2 vol.% of ethanol, read-out: Solubility
compound,measurement,setting,value
"C[C@]12CC[C@H]3[C@@H](CC=C4C[C@@H](O)CC[C@@]43C)[C@@H]1CC[C@@H]2OC(=O)COC(=O)[C@H]1O[C@@H](O[C@H]2[C@@H](O)[C@@H](CO)OC(O)[C@@H]2N)[C@H](O)[C@@H](O)[C@@H]1O (mixture of isomers) [Example 3, Conjugate of dehydroepiandrosterone (hereinafter referring as to DHS) and chondrosine at 17-position with a binding agent of bromoacetyl bromide]",solubility of the conjugate in water,[1],substantially same with that of the conjugate at 3-position in Example 1
"C[C@]12CCC(OC(=O)[C@H]3OC(O)[C@H](N)[C@@H](O)[C@@H]3O)CC1=CC[C@@H]1[C@@H]2CC[C@]2(C)C(=O)CC[C@@H]12 (mixture of isomers) [Example 4, Conjugate of DHS and 2-amino-2-deoxy-α-D-glucuronic acid]",solubility,[2]; [4],40.2 µM
"C[C@]12CC[C@H](OC(=O)COC(=O)[C@H]3O[C@@H](O[C@H]4[C@@H](O)[C@@H](CO)OC(O)[C@@H]4N)[C@H](O)[C@@H](O)[C@@H]3O)CC1=CC[C@@H]1[C@@H]2CC[C@]2(C)C(=O)CC[C@@H]12 (stereo partly drawn) [Example 1, conjugate of 3β-hydroxy-5-androsten-17-one(dehydroepiandrosterone) at 3-position and 2-amino-2-deoxy-3-O-β-glucopyranurosyl-D-galactose (chondrosine) at 6-position with a binding agent of bromoacetyl bromide]",solubility of the conjugate relative to the non-conjugate dehydroepiandrosterone,"[2]; versus dehydroepiandrosterone, same mixed solvent",more than 18 times
same,solubility,[2]; [4],43.9 µM and 30 µg/mL
"C[C@]12CC[C@@H]3c4ccc(O)cc4CC[C@H]3[C@@H]1CC[C@@H]2OC(=O)COC(=O)[C@H]1O[C@@H](O[C@H]2[C@@H](O)[C@@H](CO)OC(O)[C@@H]2N)[C@H](O)[C@@H](O)[C@@H]1O (stereo partly drawn) [Example 2, conjugate of 1,3,5(10)-estratriene-3,17β-diol (estradiol) and chondrosine at 17-position with a binding agent of bromoacetyl bromide]",solubility of the product relative to that of estradiol,"[2]; versus estradiol, method of Example 1",about 20 times
same,solubility,[2]; [4],65 µM
"C[C@]12CC[C@H](O)CC1=CC[C@@H]1[C@@H]2CC[C@]2(C)C(=O)CC[C@@H]12 [dehydroepiandrosterone, 3β-hydroxy-5-androsten-17-one, reference compound]",solubility,"[2]; same mixed solvent, measured by absorbance at 235 mμ, read-out: Solubility of dehydroepiandrosterone",2.4 µM
same,amount of free ^3 H-dehydroepiandrosterone released / binding to the antibody,[3],the amount of free ^3 H-dehydroepiandrosterone was increased by the addition of the combined product or dehydroepiandrosterone whereby the their binding to the antibody is found
